Measurements taken from patent US5599811A, “Benzothiazine dioxides as endothelin antagonists” (Warner-Lambert Company, priority 1995, dated 1997).

Key:
recombinant human ETA R = target: T1, recombinant human ETA R (Homo sapiens, UniProt P25101); type: binding; details: [125I]-ET-1 40 pM, 2 hours at 37° C.; read-out: HERBAA IC50
T1 construct: expressed in transfected cells; host or cells: Ltk- cells
T1 sequence (P25101 21-427): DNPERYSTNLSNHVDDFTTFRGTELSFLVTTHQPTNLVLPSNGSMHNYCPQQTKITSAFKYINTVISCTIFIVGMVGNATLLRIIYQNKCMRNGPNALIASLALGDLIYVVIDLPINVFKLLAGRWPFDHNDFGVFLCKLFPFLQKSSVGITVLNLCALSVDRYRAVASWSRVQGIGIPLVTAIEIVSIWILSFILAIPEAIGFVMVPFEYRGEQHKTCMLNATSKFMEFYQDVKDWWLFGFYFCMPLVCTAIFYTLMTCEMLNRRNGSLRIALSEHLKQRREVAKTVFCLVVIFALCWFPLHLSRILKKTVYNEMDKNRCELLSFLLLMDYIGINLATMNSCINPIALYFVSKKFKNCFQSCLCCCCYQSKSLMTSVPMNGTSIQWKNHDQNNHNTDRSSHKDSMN
Method: (§1) The compounds of Formula I are valuable antagonists of endothelin.
(§2) The following cultured cells were used in binding experiments: rabbit renal artery vascular smooth muscle cells (ERBA-A), Ltk-cells expressing recombinant human ETA R (HERBA-A), and CHO-K1 cells expressing recombinant human ETB R (HERBA-B).
(§3) Membranes were prepared from cultured cells by lysing cells in cold lysis buffer (5 mM HEPES, 2 mM EDTA, pH 7.4) and homogenizing with a Dounce "A" homogenizer. The homogenate was centrifuged at 30,000× g for 20 minutes at 4° C. Membrane pellets were suspended in cold buffer containing 20 mM Tris, 2 mM EDTA, 200 μM Pefabloc, 10 μM phosphoramidon, 10 μM leupeptin, 1 μM pepstatin at pH 7.4 and frozen at -80° C. until use. Membranes were thawed and homogenized with a Brinkmann Polytron then diluted in tissue buffer containing 20 mM Tris, 2 mM EDTA, 200 μM Pefabloc, and 100 μM bacitracin (pH 7.4). Radioligand and competing ligands were prepared in binding buffer containing 20 mM Tris, 2 mM EDTA, and 0.1% BSA.
(§4) Competing binding assays were initiated by combining membranes, [125I]-ET-1 (40 pM) and the competing ligand in a final volume of 250 μL and incubating for 2 hours at 37° C. The assay was terminated by filtration over Whatman GF/B filters which were presoaked with 50 mM Tris, pH 7.4 containing 0.2% BSA and 100 μM bacitracin. Nonspecific binding was defined as binding in the presence of 100 nM ET-1.

recombinant human ETB R = target: T2, recombinant human ETB R (Homo sapiens, UniProt P24530); type: binding; details: [125I]-ET-1 40 pM, 2 hours at 37° C.; read-out: HERBAB IC50
T2 construct: expressed in transfected cells; host or cells: CHO-K1 cells
T2 sequence (P24530 27-442): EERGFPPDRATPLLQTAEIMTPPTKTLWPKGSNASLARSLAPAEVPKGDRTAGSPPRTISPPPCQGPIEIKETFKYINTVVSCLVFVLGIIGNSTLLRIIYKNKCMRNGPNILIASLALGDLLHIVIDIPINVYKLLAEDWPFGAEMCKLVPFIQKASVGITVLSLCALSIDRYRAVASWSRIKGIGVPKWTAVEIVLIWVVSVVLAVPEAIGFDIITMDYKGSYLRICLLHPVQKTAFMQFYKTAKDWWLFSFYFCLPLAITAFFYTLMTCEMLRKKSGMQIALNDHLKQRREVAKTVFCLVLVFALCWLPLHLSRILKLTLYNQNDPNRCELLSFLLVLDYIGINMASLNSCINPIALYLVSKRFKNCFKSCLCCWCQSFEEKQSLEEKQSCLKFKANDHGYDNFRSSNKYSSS
Method: as §1, §2, §3, §4

ETA [1] = target: T3, ETA (Oryctolagus cuniculus, UniProt A5A8K3); assay: AAR: inhibition of ET-1 stimulated arachidonic acid release in cultured rabbit renal artery vascular smooth muscle cells; type: cell-based; details: 0.3 nM ET-1, 30 minutes
T3 construct: cultured rabbit renal artery vascular smooth muscle cells; endogenous in cells; host or cells: cultured rabbit renal artery vascular smooth muscle cells
T3 sequence (A5A8K3 21-427): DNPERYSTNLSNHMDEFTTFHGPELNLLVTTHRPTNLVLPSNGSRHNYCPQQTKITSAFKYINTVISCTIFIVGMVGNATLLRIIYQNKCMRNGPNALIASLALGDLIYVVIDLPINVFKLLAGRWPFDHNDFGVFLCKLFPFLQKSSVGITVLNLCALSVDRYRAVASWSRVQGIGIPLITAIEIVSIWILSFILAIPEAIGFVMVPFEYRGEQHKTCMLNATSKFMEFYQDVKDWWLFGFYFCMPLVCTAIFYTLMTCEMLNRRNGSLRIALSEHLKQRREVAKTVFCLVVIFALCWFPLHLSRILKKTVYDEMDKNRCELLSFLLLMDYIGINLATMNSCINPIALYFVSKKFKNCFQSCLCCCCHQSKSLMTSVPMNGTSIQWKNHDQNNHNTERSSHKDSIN
Source text: as §1

ETA [2] = target: T3, ETA; assay: VERA-A: antagonism of ET-1 stimulated vasoconstriction in the rabbit femoral artery; details: rabbit femoral artery rings, antagonist added 30 minutes before ET-1; read-out: VERAA pA2 (converted)

SMILES	IC50 (recombinant human ETA R)	IC50 (recombinant human ETB R)	IC50 (ETA [1])	Kb (ETA [2])
COc1cc(C2=C(C(=O)O)N(Cc3ccc4c(c3)OCO4)S(=O)(=O)c3ccccc32)cc(OC)c1OC [Example 24, 2-Benzo[1,3]dioxol-5-ylmethyl-1,1-dioxo-4-(3,4,5-trimethoxyphenyl)-1,2-dihydro-1λ^6-benzo[e][1,2]thiazine-3-carboxylic acid]	11000 nM	> 25000 nM	–	–
CN1C(C(=O)O)=C(c2ccc3c(c2)OCO3)c2ccccc2S1(=O)=O [Example 25, 4-Benzo[1,3]dioxol-5-yl-2-methyl-1,1-dioxo-1,2-dihydro-1λ^6-benzo[e][1,2]thiazine-3-carboxylic acid]	1700 nM	> 25000 nM	–	–
O=C(O)C1=C(c2ccc3c(c2)OCO3)c2ccccc2S(=O)(=O)N1Cc1ccc2c(c1)OCO2 [Example 26, 4-Benzo[1,3]dioxol-5-yl-2-benzo[1,3]dioxol-5-ylmethyl-1,1-dioxo-1,2-dihydro-1λ^6-benzo[e][1,2]thiazine-3-carboxylic acid]	300 nM	3100 nM	–	–
O=C(O)C1=C(c2ccc3c(c2)OCO3)c2ccccc2S(=O)(=O)N1Cc1ccccc1 [Example 27, 4-Benzo[1,3]dioxol-5-yl-2-benzyl-1,1-dioxo-1,2-dihydro-1λ^6-benzo[e][1,2]thiazine-3-carboxylic acid]	160 nM	4600 nM	–	–
COc1cc(CN2C(C(=O)O)=C(c3ccc4c(c3)OCO4)c3ccccc3S2(=O)=O)cc(OC)c1OC [Example 29, 4-Benzo[1,3]dioxol-5-yl-1,1-dioxo-2-(3,4,5-trimethoxybenzyl)-1,2-dihydro-1λ^6-benzo[e][1,2]thiazine-3-carboxylic acid]	170 nM	4700 nM	–	–
COc1ccc(CN2C(C(=O)O)=C(c3ccc4c(c3)OCO4)c3ccccc3S2(=O)=O)c(OCC(=O)O)c1 [Example 30, 4-Benzo[1,3]dioxol-5-yl-2-(2-carboxymethoxy-4-methoxybenzyl)-1,1-dioxo-1,2-dihydro-1λ^6-benzo[e][1,2]thiazine-3-carboxylic acid]	1800 nM	4900 nM	–	–
O=C(O)C1=C(c2ccc3c(c2)OCO3)c2ccccc2S(=O)(=O)N1Cc1cc2c(cc1Cl)OCO2 [Example 31, 4-Benzo[1,3]dioxol-5-yl-2-(6-chloro-benzo[1,3]dioxol-5-ylmethyl)-1,1-dioxo-1,2-dihydro-1λ^6-benzo[e][1,2]thiazine-3-carboxylic acid]	55 nM	380 nM	1300 nM	–
COc1cc(CN2C(C(=O)O)=C(c3ccc4c(c3)OCO4)c3ccccc3S2(=O)=O)cc2c1OCO2 [Example 32, 4-Benzo[1,3]dioxol-5-yl-2-(7-methoxy-benzo[1,3]dioxol-5-ylmethyl)-1,1-dioxo-1,2-dihydro-1λ^6-benzo[e][1,2]thiazine-3-carboxylic acid]	300 nM	4700 nM	–	–
COc1ccc(C2=C(C(=O)O)N(Cc3ccc4c(c3)OCO4)S(=O)(=O)c3ccccc32)cc1OC [Example 33, 2-Benzo[1,3]dioxol-5-ylmethyl-4-(3,4-dimethoxy-phenyl)-1,1-dioxo-1,2-dihydro-1λ^6-benzo[e][1,2]thiazine-3-carboxylic acid]	720 nM	3600 nM	–	–
O=C(NS(=O)(=O)c1ccccc1)C1=C(c2ccc3c(c2)OCO3)c2ccccc2S(=O)(=O)N1Cc1ccc2c(c1)OCO2 [Example 35, N-(4-Benzo[1,3]dioxo-5-yl-2-benzo[1,3]dioxol-5-ylmethyl-1,1-dioxo-1,2-dihydro-1λ^6-benzo[e][1,2]thiazine-3-carbonyl)-benzenesulfonamide]	3000 nM	> 25000 nM	–	–
CN1C(C(=O)O)=C(Sc2ccc3c(c2)OCO3)c2ccccc2S1(=O)=O [Example 41, 4-(benzo[1,3]dioxol-5-ylsulfanyl)-2-methyl-1,1-dioxo-1,2-dihydro-1λ^6-benzo[e][1,2]thiazine-3-carboxylic acid]	100 nM	25000 nM	–	–
O=C(O)C1=C(Sc2ccc3c(c2)OCO3)c2ccccc2S(=O)(=O)N1Cc1ccc2c(c1)OCO2 [Example 42, 2-Benzo[1,3]dioxol-5-ylmethyl-4-(benzo[1,3]dioxol-5-ylsulfanyl)-1,1-dioxo-1,2-dihydro-1λ^6-benzo[e][1,2]thiazine-3-carboxylic acid]	66 nM	5400 nM	1200 nM	> 10000 nM
O=C(O)C1=C(Sc2ccc3c(c2)OCO3)c2ccccc2S(=O)(=O)N1Cc1ccccc1 [Example 43, 4-(benzo[1,3]dioxol-5-ylsulfanyl)-2-benzyl-1,1-dioxo-1,2-dihydro-1λ^6-benzo[e][1,2]thiazine-3-carboxylic acid]	120 nM	12000 nM	–	–
COc1ccc(CN2C(C(=O)O)=C(Sc3ccc4c(c3)OCO4)c3ccccc3S2(=O)=O)cc1 [Example 44, 4-(benzo[1,3]dioxol-5-ylsulfanyl)-2-(4-methoxy-benzyl)-1,1-dioxo-1,2-dihydro-1λ^6-benzo[e][1,2]thiazine-3-carboxylic acid]	400 nM	2300 nM	–	–
COc1cc(CN2C(C(=O)O)=C(Sc3ccc4c(c3)OCO4)c3ccccc3S2(=O)=O)cc(OC)c1OC [Example 45, 4-(benzo[1,3]dioxol-5-ylsulfanyl)-2-(3,4,5-trimethoxy-benzyl)-1,1-dioxo-1,2-dihydro-1λ^6-benzo[e][1,2]thiazine-3-carboxylic acid]	200 nM	12000 nM	–	–
O=C(O)C1=C(Sc2ccc3c(c2)OCO3)c2ccccc2S(=O)(=O)N1Cc1cc2c(cc1Cl)OCO2 [Example 46, 4-(Benzo[1,3]dioxol-5-ylsulfanyl)-2-(6-chloro-benzo[1,3]dioxol-5-ylmethyl)-1,1-dioxo-1,2-dihydro-1λ^6-benzo[e][1,2]thiazine-3-carboxylic acid]	510 nM	22000 nM	–	–
COc1ccc(SC2=C(C(=O)O)N(Cc3ccc4c(c3)OCO4)S(=O)(=O)c3ccccc32)cc1OC [Example 48, 2-Benzo[1,3]dioxol-5-ylmethyl-4-(3,4-dimethoxyphenylsulfanyl)-1,1-dioxo-1,2-dihydro-1λ^6-benzo[e][1,2]thiazine-3-carboxylic acid]	230 nM	8200 nM	–	–
COc1cccc(SC2=C(C(=O)O)N(Cc3ccc4c(c3)OCO4)S(=O)(=O)c3ccccc32)c1 [Example 49, 2-Benzo[1,3]dioxol-5-ylmethyl-4-(3-methoxyphenylsulfanyl)-1,1-dioxo-1,2-dihydro-1λ^6-benzo[e][1,2]thiazine-3-carboxylic acid]	510 nM	8700 nM	–	–
COc1cc2c(cc1OC)S(=O)(=O)N(Cc1ccc3c(c1)OCO3)C(C(=O)O)=C2Sc1ccc2c(c1)OCO2 [Example 50, 2-Benzo[1,3]dioxol-5-ylmethyl-4-(benzo[1,3]dioxol-5-ylsulfanyl)-6,7-dimethoxy-1,1-dioxo-1,1-dihydro-1λ^6-benzo[e][1,2]thiazine-3-carboxylic acid]	300 nM	3500 nM	–	–
